Molecules are shown by their SMILES. The source made the active and inactive calls.

The target in data set [1] is Cytochrome P450 2C19 (Homo sapiens, UniProt P33261). As to the kind of experiment: Cytochrome panel assay with activity outcomes. Panel member name: p450-cyp2c19 Compounds with AC50 equal or less than 10 uM are considered active. The class given is functional.
Data set [2] concerns the target Cytochrome P450 2C9 (Homo sapiens, UniProt P11712).
Data set [3] is described as follows: cells. The format is functional.
For data set [4], the target named is Cytochrome P450 2D6 (Homo sapiens, UniProt P10635).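 Also: CYP2D6 member of a cytochrome P450 panel assay.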
The target of data set [5] is Cytochrome P450 3A4 (Homo sapiens, UniProt P08684).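 Also: CYP3A4 tested as one member of a cytochrome P450 panel screen.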
Data set [6] concerns the target T1, Cytochrome P450 1A2 (Homo sapiens, UniProt P05177).
T1 sequence (P05177 whole entry): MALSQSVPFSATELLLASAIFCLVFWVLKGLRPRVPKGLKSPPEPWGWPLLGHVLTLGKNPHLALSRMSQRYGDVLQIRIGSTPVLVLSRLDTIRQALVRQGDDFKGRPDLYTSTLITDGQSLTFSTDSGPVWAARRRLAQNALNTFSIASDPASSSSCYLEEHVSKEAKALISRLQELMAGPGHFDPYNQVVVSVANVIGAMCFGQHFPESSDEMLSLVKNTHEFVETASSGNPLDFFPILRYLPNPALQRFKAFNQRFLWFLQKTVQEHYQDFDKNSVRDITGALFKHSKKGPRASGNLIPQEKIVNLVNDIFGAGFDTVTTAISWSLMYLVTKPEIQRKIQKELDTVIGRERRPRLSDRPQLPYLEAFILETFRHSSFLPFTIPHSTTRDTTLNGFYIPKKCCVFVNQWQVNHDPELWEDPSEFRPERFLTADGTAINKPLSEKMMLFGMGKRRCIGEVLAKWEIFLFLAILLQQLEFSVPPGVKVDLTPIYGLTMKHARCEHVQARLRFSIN

For data set [7], the target named is T2, Protein RecA (Mycobacterium tuberculosis, UniProt P9WHJ3).
T2 sequence (P9WHJ3 whole entry): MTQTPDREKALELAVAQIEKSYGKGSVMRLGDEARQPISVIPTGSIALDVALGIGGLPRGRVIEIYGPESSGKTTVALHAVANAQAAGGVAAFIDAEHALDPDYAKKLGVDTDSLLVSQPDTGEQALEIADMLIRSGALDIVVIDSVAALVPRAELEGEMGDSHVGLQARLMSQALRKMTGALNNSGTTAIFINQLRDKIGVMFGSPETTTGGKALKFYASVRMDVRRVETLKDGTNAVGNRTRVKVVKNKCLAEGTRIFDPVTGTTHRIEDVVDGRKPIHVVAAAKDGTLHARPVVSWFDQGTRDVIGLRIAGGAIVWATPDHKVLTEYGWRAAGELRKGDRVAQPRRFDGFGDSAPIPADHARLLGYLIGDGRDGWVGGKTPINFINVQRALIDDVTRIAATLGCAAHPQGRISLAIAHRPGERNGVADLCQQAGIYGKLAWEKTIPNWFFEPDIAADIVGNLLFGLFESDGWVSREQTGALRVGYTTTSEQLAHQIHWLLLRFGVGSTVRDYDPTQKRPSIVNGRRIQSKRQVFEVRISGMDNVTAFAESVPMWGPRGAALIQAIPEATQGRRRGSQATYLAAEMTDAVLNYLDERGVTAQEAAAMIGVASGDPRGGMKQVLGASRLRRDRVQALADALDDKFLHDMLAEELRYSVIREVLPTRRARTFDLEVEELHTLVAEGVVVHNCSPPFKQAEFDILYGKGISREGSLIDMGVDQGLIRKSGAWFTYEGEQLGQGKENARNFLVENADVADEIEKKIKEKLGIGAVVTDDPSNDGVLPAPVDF
As to the kind of experiment: Fluorescence Cell-Free Homogeneous Dose Retest to Identify Inhibitors of RecA-Intein Splicing Activity. [Related pubchem assays (depositor defined):AID2097, AID2223, AID489010, AID492950]. The format is functional.

The target in data set [8] is T3, Replicative DNA helicase DnaB (Mycobacterium tuberculosis, UniProt P9WMR3).
T3 sequence (P9WMR3 whole entry): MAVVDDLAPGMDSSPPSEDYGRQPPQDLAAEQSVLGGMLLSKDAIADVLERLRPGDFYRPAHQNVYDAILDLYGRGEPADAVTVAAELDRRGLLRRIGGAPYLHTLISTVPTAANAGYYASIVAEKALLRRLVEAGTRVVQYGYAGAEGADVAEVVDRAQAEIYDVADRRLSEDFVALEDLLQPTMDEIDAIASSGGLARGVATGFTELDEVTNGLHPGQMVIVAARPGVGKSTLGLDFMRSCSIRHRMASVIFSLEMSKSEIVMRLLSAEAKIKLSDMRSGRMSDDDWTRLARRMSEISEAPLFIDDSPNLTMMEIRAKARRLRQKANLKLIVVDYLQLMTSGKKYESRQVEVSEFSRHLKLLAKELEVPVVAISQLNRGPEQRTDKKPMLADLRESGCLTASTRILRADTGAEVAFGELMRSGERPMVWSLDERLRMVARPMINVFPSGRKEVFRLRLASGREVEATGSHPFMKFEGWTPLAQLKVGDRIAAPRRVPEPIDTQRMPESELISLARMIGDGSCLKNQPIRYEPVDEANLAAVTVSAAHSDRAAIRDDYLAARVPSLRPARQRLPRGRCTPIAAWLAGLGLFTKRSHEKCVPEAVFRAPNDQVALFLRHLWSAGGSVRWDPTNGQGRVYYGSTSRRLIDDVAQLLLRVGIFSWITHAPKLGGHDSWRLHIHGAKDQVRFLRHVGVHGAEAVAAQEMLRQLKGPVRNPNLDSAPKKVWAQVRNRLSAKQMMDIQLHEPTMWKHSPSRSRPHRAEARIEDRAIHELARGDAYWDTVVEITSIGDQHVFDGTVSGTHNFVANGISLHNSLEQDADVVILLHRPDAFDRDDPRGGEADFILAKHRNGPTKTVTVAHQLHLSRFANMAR
As to the kind of experiment: DnaB intein splicing inhibitors, dose response, biochemical, cell-free fluorescence (AID 449749). The format is functional.

Data set [9] has as its target T4, Corticotropin-releasing factor receptor 2/Corticotropin-releasing factor-binding protein (Homo sapiens, UniProt P24387+Q13324).
T4 sequence (Q13324 whole entry): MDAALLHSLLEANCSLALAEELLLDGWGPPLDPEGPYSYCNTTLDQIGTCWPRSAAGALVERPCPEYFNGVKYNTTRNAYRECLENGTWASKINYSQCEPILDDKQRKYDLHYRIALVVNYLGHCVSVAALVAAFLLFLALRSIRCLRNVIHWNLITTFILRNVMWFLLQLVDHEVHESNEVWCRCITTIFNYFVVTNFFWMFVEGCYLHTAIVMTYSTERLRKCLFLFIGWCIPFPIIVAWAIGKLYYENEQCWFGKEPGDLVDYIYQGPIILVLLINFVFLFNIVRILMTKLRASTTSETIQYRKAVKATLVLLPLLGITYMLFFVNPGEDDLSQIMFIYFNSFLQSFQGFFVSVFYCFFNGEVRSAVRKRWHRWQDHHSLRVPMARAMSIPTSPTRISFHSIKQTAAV
T4 sequence (P24387 whole entry): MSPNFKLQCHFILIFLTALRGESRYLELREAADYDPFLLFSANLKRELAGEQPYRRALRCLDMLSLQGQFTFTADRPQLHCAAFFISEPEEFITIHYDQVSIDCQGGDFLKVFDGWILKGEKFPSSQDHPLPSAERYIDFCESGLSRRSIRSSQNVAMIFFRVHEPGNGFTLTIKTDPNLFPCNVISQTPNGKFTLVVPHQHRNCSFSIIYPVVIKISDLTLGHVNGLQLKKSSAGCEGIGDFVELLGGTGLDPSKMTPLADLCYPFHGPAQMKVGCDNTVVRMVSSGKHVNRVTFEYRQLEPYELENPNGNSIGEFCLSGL
Nature of the data set: Dose Response confirmation of uHTS hits for small molecule antagonists of the CRF-binding protein and CRF-R2 receptor complex. Conditions: read-out: IC50_Mean. The class given is functional.

For data set [10], the target named is T4, Corticotropin-releasing factor receptor 2/Corticotropin-releasing factor-binding protein. As to the kind of experiment: activators of CRF receptor 2 with binding protein – uHTS hits, confirmation (AID 602473). The class given is functional. The conditions noted are these: read-out: EC50_Mean.

Sequence of Cytochrome P450 2D6 (P10635 whole entry): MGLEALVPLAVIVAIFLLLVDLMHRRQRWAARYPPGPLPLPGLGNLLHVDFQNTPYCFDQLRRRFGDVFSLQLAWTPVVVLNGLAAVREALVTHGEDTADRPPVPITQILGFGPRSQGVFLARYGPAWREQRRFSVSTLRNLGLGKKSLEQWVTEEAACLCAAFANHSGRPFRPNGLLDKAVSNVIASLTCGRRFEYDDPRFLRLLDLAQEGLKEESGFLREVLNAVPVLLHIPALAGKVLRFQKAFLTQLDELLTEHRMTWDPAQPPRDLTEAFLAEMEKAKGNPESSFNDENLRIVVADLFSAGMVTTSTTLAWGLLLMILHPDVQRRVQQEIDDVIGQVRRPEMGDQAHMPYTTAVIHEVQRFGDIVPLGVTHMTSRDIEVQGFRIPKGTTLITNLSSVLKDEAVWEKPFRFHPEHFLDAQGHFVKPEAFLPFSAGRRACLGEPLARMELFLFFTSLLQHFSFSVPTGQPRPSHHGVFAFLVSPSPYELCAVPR
Sequence of Cytochrome P450 2C19 (P33261 whole entry): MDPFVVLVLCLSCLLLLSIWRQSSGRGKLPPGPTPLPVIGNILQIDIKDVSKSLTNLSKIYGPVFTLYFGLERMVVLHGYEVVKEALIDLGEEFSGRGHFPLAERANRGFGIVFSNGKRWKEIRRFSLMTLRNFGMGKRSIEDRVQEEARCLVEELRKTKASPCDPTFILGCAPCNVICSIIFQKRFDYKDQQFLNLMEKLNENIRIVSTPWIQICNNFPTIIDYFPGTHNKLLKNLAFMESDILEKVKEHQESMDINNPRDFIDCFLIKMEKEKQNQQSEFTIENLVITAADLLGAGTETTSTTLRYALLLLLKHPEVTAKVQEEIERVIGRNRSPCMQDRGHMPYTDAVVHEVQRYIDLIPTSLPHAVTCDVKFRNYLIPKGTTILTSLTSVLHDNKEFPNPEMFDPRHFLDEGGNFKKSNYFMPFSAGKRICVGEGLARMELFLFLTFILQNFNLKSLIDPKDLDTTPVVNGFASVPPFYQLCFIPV
Sequence of Cytochrome P450 3A4 (P08684 whole entry): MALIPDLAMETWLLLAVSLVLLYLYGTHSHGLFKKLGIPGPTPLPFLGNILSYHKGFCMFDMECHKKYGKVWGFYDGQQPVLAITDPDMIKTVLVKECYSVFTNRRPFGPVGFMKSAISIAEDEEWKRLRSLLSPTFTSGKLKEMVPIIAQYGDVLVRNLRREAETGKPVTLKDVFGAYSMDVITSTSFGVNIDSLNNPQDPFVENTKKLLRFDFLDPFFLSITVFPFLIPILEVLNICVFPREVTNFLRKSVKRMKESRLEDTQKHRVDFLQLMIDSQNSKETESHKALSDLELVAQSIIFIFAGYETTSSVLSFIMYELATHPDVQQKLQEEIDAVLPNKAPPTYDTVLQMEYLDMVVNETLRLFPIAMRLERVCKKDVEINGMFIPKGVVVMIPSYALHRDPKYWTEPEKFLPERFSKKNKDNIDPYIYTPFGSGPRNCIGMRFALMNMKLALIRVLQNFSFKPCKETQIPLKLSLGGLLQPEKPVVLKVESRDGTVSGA
Sequence of Cytochrome P450 2C9 (P11712 whole entry): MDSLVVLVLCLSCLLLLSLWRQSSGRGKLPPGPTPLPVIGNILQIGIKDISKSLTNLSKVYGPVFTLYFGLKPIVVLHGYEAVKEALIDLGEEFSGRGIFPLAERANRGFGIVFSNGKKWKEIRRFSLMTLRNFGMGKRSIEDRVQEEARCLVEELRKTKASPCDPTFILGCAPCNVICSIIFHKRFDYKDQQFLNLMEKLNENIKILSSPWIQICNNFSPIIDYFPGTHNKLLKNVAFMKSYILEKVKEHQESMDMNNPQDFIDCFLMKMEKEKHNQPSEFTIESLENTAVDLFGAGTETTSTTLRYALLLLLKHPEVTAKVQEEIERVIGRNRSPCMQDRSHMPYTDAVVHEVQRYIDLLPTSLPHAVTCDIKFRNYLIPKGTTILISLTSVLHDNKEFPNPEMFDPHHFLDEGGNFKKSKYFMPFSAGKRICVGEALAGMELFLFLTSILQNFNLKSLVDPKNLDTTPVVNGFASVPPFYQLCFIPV

Broadly, the AC50 is the midpoint of the concentration-response curve, whichever way the signal moves. With `CCCC1CCC(c2ccc(C(N)=O)cc2)CC1` (stereo not drawn), the AC50 entry in data set [1] is “inconclusive”; in data set [2], 0.0158 µM (inconclusive).

For `O=C(CCNc1cccc(Cl)c1)c1cccs1`, the IC50 in [3] was 20 µM (active). In addition, the results for the AC50 in [4] and in data set [2] were 22.4 µM (inconclusive) and 20 µM (inconclusive), respectively.

Take `O=[N+]([O-])c1ccc2c(c1)N=C1O[C@H](c3ccc([C@H]4OC5=Nc6cc([N+](=O)[O-])ccc6NC5=C4O)cc3)C(O)=C1N2`: the half-maximal activity concentration (AC50) in data set [5] and in [6] was 3.16 µM (inconclusive) in each case.

On to `CCOc1ccccc1N1CCN(C(=O)c2ccc(-c3ccc(OC(C)=O)cc3)cc2)CC1`, for which the EC50 in [7] is 58.4 µM (active). Also, the AC50 in data set [8] is 2.31 µM (active).

In the case of `CCC(C)NC(=O)c1ccccc1NC(=O)Nc1ccccc1` (stereo not drawn), the AC50 in [6] was 3.16 µM (inconclusive); in data set [2], 15.8 µM (inconclusive).

On to `COc1ccc(-c2cnnc(CCCn3ccnc3-c3ccccc3)n2)cc1`, for which the AC50 was 7.94 µM (inconclusive) in data set [1] (read-out: AC50) and 0.0126 µM (inconclusive) in data set [2].

Turning to `O=C(c1cn(-c2ccccc2)nc1-c1cccs1)N1CCOCC1`, the concentration at half-maximal activity (AC50) in [1] (read-out: AC50) and in data set [2] was 39.8 µM (inconclusive) each time.

Regarding `COc1cc(OC)cc(C2C(C#N)=C(N)Oc3[nH]nc(-c4cccnc4)c32)c1` (stereo not drawn), the EC50 in data set [7] was 2.13 µM (active). The half-maximal activity concentration (AC50) in data set [8] is 18 µM (active).

As for `Cc1cc(C)cc(C(=O)OC2C[C@H]3CC[C@@H](C2)N3C)c1` (stereo partly drawn), the AC50 in data set [6] was 25.1 µM (inconclusive); in data set [1] (read-out: AC50), 39.8 µM (inconclusive).

For the compound `COc1cccc(/C=N\NC(=O)c2cc(OCC(F)(F)F)ccc2OCC(F)(F)F)c1`, the AC50 in [5] was 35.5 µM (inconclusive); in [1] (read-out: AC50), 0.891 µM (inconclusive).

Consider `COc1cccc(OC(=O)CSc2nnc(-c3ccccc3Br)o2)c1`, for which the EC50 in [7] was 5.7 µM (active). Further, the AC50 in data set [8] was 3.09 µM (active).

As for `c1ccc(N2CC[C@@]3(CCCNC3)C2)cc1`, the half-maximal activity concentration (AC50) in data set [5] was 20 µM (inconclusive); in data set [6], 39.8 µM (inconclusive); in data set [4] it was 10 µM (inconclusive).

On to `CNc1ncncc1-c1ccccc1OC`, for which the half-maximal activity concentration (AC50) in data set [5] was 0.251 µM (inconclusive); in data set [6], 1.58 µM (inconclusive).

In the case of `CCSc1ncc(/C=N/Nc2ccc(F)cc2)n1C`, the figures for the concentration at half-maximal activity (AC50) in data set [5] and in data set [1] (read-out: AC50) were 1.58 µM (inconclusive) and 0.0794 µM (inconclusive), respectively.

For `O=c1c2ccccc2nc(N2CCCC2)n1-c1ccc(Cl)cc1`, the concentration at half-maximal activity (AC50) in [1] (read-out: AC50) is 1.26 µM (inconclusive); in [4], 10 µM (inconclusive). In addition, the IC50 in data set [9] is > 47.1 µM (inactive). For the same compound, in data set [10], the EC50 was > 53 µM (inactive).

Turning to `COc1ccc(-n2c3c(c(=O)[nH]c2=O)C(C(F)(F)F)(C(F)(F)F)NC(CC(C)C)=N3)cc1`, the AC50 is 17.8 µM (inconclusive) in data set [5], 39.8 µM (inconclusive) in [6], 10 µM (inconclusive) in data set [1] (read-out: AC50) and 28.2 µM (inconclusive) in data set [2].

For `CCc1ccc(N(C(=O)CNC(=O)c2cccs2)C(C(=O)NC(C)(C)C)c2cc(OC)c(OC)c(OC)c2)cc1` (stereo not drawn), the values for the AC50 in [1] (read-out: AC50) and in data set [2] were 0.00794 µM (inconclusive) and 28.2 µM (inconclusive), respectively.

Consider `N#CC(c1ccccc1F)(c1ncc(C(F)(F)F)cc1Cl)N1CCOCC1` (stereo not drawn), for which the values for the AC50 in data set [5], in data set [6] and in [2] were 22.4 µM (inconclusive), 25.1 µM (inconclusive) and 31.6 µM (inconclusive), respectively.

Turning to `Cn1cnnc1SCC(=O)OCN1C(=O)c2ccccc2C1=O`, the half-maximal activity concentration (AC50) in data set [6] was 25.1 µM (inconclusive); in data set [1] (read-out: AC50) it was 10 µM (inconclusive).

`O=c1c(-c2cc(F)cc(F)c2)nc2cnc(N3CCNCC3)nc2n1Cc1cccs1`: the AC50 in data set [6] was 2.51 µM (inconclusive); in data set [1] (read-out: AC50), 39.8 µM (inconclusive).

Regarding `C[C@H]1CCCC=CC2C[C@H](O)C[C@@H]2[C@H](O)/C=C\C(=O)O1` (stereo partly drawn), the AC50 in [5] was 31.6 µM (inconclusive); in [6] it was 15.8 µM (inconclusive); in [2], 15.8 µM (inconclusive).

For the compound `Cc1cc(OCc2ccc([N+](=O)[O-])cc2)c2c3c(c(=O)oc2c1)CCCC3`, the AC50 in data set [5] is 2.82 µM (inconclusive); in data set [4] it was 3.16 µM (inconclusive).

In the case of `CCN1C(=O)C(O)(CC(=O)/C=C/C=C/c2ccccc2)c2ccccc21` (stereo not drawn), the figures for the AC50 in [5], in data set [1] (read-out: AC50) and in [2] were 17.8 µM (inconclusive), 35.5 µM (inconclusive) and 0.141 µM (inconclusive), respectively.

For the compound `C=CCOc1c2ccc(C(=O)NC3CCCc4ccccc43)cc2nn1C` (stereo not drawn), the values for the AC50 in [6] and in [4] were 15.8 µM (inconclusive) and 22.4 µM (inconclusive), respectively.

`O=C(CNC(=O)c1ccccn1)N/N=C/c1ccccc1`: the AC50 in [1] (read-out: AC50) is 17.8 µM (inconclusive).

The values above are taken from ChEMBL document CHEMBL1201862, “PubChem BioAssay data set” (2004).
